Measurements taken from article PMC5845353, “The selective cathepsin K inhibitor MIV-711 attenuates joint pathology in experimental animal models of osteoarthritis” (Journal of Translational Medicine, 2018).

Test system: rabbits subjected to anterior cruciate ligament transection (ACLT)
Assay: Rabbit ACLT study, histomorphometry of bone, cartilage and osteophytes
Assay type: in vivo
Method: The femora and tibias were decalcified, embedded in paraffin, sectioned at 5-7 µm at two different levels separated by approximately 2 mm, and stained with safranin O and toluidine blue.
Both tibial plateaus and femoral condyles (i.e. four joint compartments) were also subjected to histomorphometric analysis of cartilage, subchondral bone, cancellous bone, and osteophytes. The measurements were made using OsteoMeasureXP version 3.3.0.2 as follows:
Uncalcified cartilage area was measured by tracing the articular surface (cartilage perimeter) and bone or calcified cartilage/uncalcified cartilage interface (cartilage boundary).
Cartilage width was measured by point to point measurement at intersections between a sampling grid with approximately 0.5 mm spacing and the cartilage boundary. The intercepts measured were orthogonal to the cartilage boundary and ended at the cartilage perimeter. At intersections where the cartilage width was zero due to erosion, a value of zero was recorded.
Subchondral bone width was measured by point to point measurement at intersections between a sampling grid with approximately 0.5 mm spacing and the cartilage boundary. The intercepts measured were orthogonal to the cartilage boundary and ended at the first marrow cavity encountered that had at least one dimension approximately equivalent to nearby trabecular thickness.
Osteophyte area was measured for abaxial osteophytes. On the femur, osteophytes associated with the condyles but not with the trochlear grooves were measured.
Bone area (including osteoid) and perimeter were measured in a 3.8 X 1.5 mm ROI centered approximately 1 mm below the bone/cartilage interface. This ROI was intended to be equivalent to the subchondral cancellous bone VOI measured by microCT. Bone volume (BV/TV), trabecular thickness (Tb.Th), trabecular number (Tb.N) and trabecular separation (Tb.Sp) were derived from these measurements using standard formulae.
Slides were evaluated in animal ID order, i.e. in random order with respect to treatment, so that the measurer was effectively blinded to treatment assignment.
Analysis was performed on all four condyles at two levels (Level 1 and 2) for each condyle:
Group 1) sham + vehicle; Group 2) ACLT + vehicle; Group 3) ACLT + MIV-711, 30 µmol/kg (low dose) and Group 4) ACLT + MIV-711, 100 µmol/kg (high dose).

[1] = Level 1 LFC, Group 4, ACLT + MIV-711 100 µmol/kg
[2] = Level 1 LTP, Group 3, ACLT + MIV-711 30 µmol/kg
[3] = Level 1 LTP, Group 4, ACLT + MIV-711 100 µmol/kg
[4] = Level 1 MFC, Group 3, ACLT + MIV-711 30 µmol/kg
[5] = Level 1 MFC, Group 4, ACLT + MIV-711 100 µmol/kg

Question: What does the source list for `C#C[C@@H]1CN(C(=O)[C@H](CC(C)C)NC(=O)c2ccc(-c3nc(N4CCN(C)CC4)sc3F)cc2)[C@@H]2C(=O)CO[C@H]12` [MIV-711]?
Answer: Cart.Ar, Median [1]: 3.33 mm2; Cart.Bd, Mean [1]: 11.05 mm; Cart.Bd, Median [1]: 11.43 mm; Cart.Pm, Mean [1]: 11.98 mm; Cart.Pm, Median [1]: 12.38 mm; Cart.Wi, Mean [1]: 290.77 µm; Cart.Wi, Median [1]: 272.05 µm; Ophte.Ar, Mean [1]: 3.18 mm2; Ophte.Ar, Median [1]: 1.06 mm2; SCB.Wi, Mean [1]: 478.03 µm; SCB.Wi, Median [1]: 466.56 µm; Tb.N, Mean [1]: 2.76 1/mm; Tb.N, Median [1]: 2.79 1/mm; Tb.Sp, Mean [1]: 215.44 µm; Tb.Sp, Median [1]: 222.15 µm; Tb.Th, Mean [1]: 147.91 µm; Tb.Th, Median [1]: 146.15 µm; BV/TV, Mean [2]: 43.89%; BV/TV, Median [2]: 43.62%; Cart.Ar, Mean [2]: 2.03 mm2; Cart.Ar, Median [2]: 2.02 mm2; Cart.Bd, Mean [2]: 6.10 mm; Cart.Bd, Median [2]: 6.13 mm; Cart.Pm, Mean [2]: 6.15 mm; Cart.Pm, Median [2]: 6.13 mm; Cart.Wi, Mean [2]: 340.85 µm; Cart.Wi, Median [2]: 342.70 µm; Ophte.Ar, Mean [2]: 0.43 mm2; Ophte.Ar, Median [2]: 0.58 mm2; SCB.Wi, Mean [2]: 532.09 µm; SCB.Wi, Median [2]: 572.30 µm; Tb.N, Mean [2]: 2.79 1/mm; Tb.N, Median [2]: 2.77 1/mm; Tb.Sp, Mean [2]: 202.57 µm; Tb.Sp, Median [2]: 211.29 µm; Tb.Th, Mean [2]: 159.11 µm; Tb.Th, Median [2]: 141.92 µm; BV/TV, Mean [3]: 43.87%; BV/TV, Median [3]: 45.02%; Cart.Ar, Mean [3]: 2.49 mm2; Cart.Ar, Median [3]: 2.63 mm2; Cart.Bd, Mean [3]: 6.56 mm; Cart.Bd, Median [3]: 6.67 mm; Cart.Pm, Mean [3]: 6.48 mm; Cart.Pm, Median [3]: 6.62 mm; Cart.Wi, Mean [3]: 391.09 µm; Cart.Wi, Median [3]: 393.49 µm; Ophte.Ar, Mean [3]: 0.62 mm2; Ophte.Ar, Median [3]: 0.37 mm2; SCB.Wi, Mean [3]: 557.78 µm; SCB.Wi, Median [3]: 592.81 µm; Tb.N, Mean [3]: 2.47 1/mm; Tb.N, Median [3]: 2.39 1/mm; Tb.Sp, Mean [3]: 232.42 µm; Tb.Sp, Median [3]: 223.55 µm; Tb.Th, Mean [3]: 179.81 µm; Tb.Th, Median [3]: 179.09 µm; BV/TV, Mean [4]: 52.87%; BV/TV, Median [4]: 51.00%; Cart.Ar, Mean [4]: 2.30 mm2; Cart.Ar, Median [4]: 2.03 mm2; Ophte.Ar, Mean [4]: 2.75 mm2; Ophte.Ar, Median [4]: 2.12 mm2; Tb.N, Mean [4]: 2.87 1/mm; Tb.N, Median [4]: 2.98 1/mm; Tb.Sp, Mean [4]: 164.11 µm; Tb.Sp, Median [4]: 161.32 µm; Tb.Th, Mean [4]: 190.82 µm; Tb.Th, Median [4]: 169.90 µm; BV/TV, Mean [5]: 46.41%; BV/TV, Median [5]: 48.01%; Cart.Ar, Mean [5]: 2.99 mm2; Cart.Ar, Median [5]: 3.31 mm2; Ophte.Ar, Mean [5]: 5.87 mm2; Ophte.Ar, Median [5]: 1.02 mm2; Tb.N, Mean [5]: 2.87 1/mm; Tb.N, Median [5]: 2.92 1/mm; Tb.Sp, Mean [5]: 189.94 µm; Tb.Sp, Median [5]: 173.69 µm; Tb.Th, Mean [5]: 161.31 µm
